Values after ≈ are worked out from the molar mass of the structure shown. Values joined by “and” are separate entries in the source; they are usually repeats but may differ in a detail not shown here. Equal values may be shown once.

The text below walks through data of article PMC4926433, “Isoquercitrin Esters with Mono- or Dicarboxylic Acids: Enzymatic Preparation and Properties” (International Journal of Molecular Sciences, 2016).

The nature of data set [1]: Folin–Ciocalteau reduction (FCR) assay, reducing capacity. Conditions: gallic acid equivalents; mean ± SE. In kind it is biochemical. The procedure:
Folin-Ciocalteu assay, commonly known as the total phenols assay, determines a sample reducing capacity. FCR contains heteropolyphosphotunstate-molybdates, which are reduced in aqueous milieu at pH ≈ 10 to blue species, presumably (PMoW11O40)^4- [29]. […] This is probably related to high hydrophobicity of these derivatives. Reducing capacity was evaluated using Folin-Ciocalteau reagent with minor modifications as described previously.

The nature of data set [2]: DPPH radical scavenging assay. In kind it is biochemical. The conditions noted are these: methanol, DPPH 20 µM, 30 min; mean ± SE. As for the experimental part: When reduced, the solution decolorizes in proportion to the strength and concentration of the antiradical compound tested. The results of this test are usually expressed as the concentration of the compound that reduces 50% of the radical (IC50, Table 1). […] However, no clear relationship between the carboxylic chain length and DPPH radical scavenging activity could be established. Antiradical activity was evaluated spectrophotometrically as the ability of the substances to reduce the DPPH radical as described previously with minor modifications.
(DPPH is a stable violet radical that fades when it is reduced.)

Data set [3] can be described thus: ABTS radical cation scavenging (Antioxidant Assay Kit). In kind it is biochemical. The conditions noted are these: Trolox equivalents; aqueous buffer pH 5; mean ± SE. As for the experimental part:
Determination of ABTS scavenging activity involves an electron-transfer reaction. […] The capacity to scavenge the radical cation (ABTS^·) was evaluated using the Antioxidant Assay Kit (CS0790, Sigma-Aldrich, Prague, Czech Republic) and expressed as Trolox equivalents (TE) from the Trolox calibration curve.

For data set [4], the system named is rat liver microsomal membranes. In words: Inhibition of microsomal lipid peroxidation induced by tert-butyl hydroperoxide (TBARS). In kind it is biochemical. The conditions noted are these: male rat liver microsomes, tert-butylhydroperoxide 1 mM, 37 °C, 30 min, TBARS; mean ± SE; read-out: Lpx (IC50; µM). From the text:
Lipid peroxidation is a type of oxidative degradation of lipids caused by free radicals in cell membranes, resulting in cell damage. The most notable initiators of this chain reaction in living cells are reactive oxygen species (ROS), such as OH· and HO2·, which combine with a hydrogen atom to make water and a fatty acid radical. We used tert-butyl hydroperoxide, a relatively stable organic peroxide, as initiator of peroxidation of rat liver microsomal membranes. The inhibition of this reaction depends not only on the free radical scavenging capacity, but also on the capacity of these compounds to interact with and penetrate lipid bilayers. Isoquercitrin derivatives differed considerably in their capacity to inhibit the peroxidation of microsomal membranes. […] A similar trend, e.g., improving the activity in medium chain derivatives with subsequent drop for longer chain esters, was reported for anti-proliferative activity of IQ monocarboxylic acid esters on the growth of tumoral Caco2 cells, and also for the inhibition of tyrosinase activity.
Pooled microsomes from male rat livers (M9066, Sigma-Aldrich, Prague, Czech Republic) were washed five times using centrifugation and phosphate-buffered saline (PBS, 13,500 rpm, 5 min, 4 °C) to remove sucrose. In addition, 400 µL of the diluted microsomal suspension (0.625 mg protein/mL in PBS), the compounds tested in 50 µL of dimethyl sulfoxide (DMSO, final concentration 5–2000 µM) and 50 µL of tert-butylhydroperoxide in PBS (final concentration 1 mM) were mixed and incubated at 37 °C for 30 min. Determination of lipid peroxidation products as thiobarbituric acid reactive substances (TBARS) and calculation of the IC50 values were performed as described previously.
For orientation: Microsomes from liver hold many membrane-bound enzymes, among them those of drug oxidation.

The nature of the next data set: Solubility in water. It is filed as physicochemical. The conditions noted are these: pH = 6.5, isoquercitrin purity 96.5%. From the text:
The hydrophilicity/lipophilicity of a compound is often crucial for assessing its bioavailability. Flavonoids are generally poorly soluble in water; aqueous solubility increases at alkaline pH as phenols are weak acids. […] [15]).

The conditions of data set [5]: pH not given; cited from earlier work.
For data set [6] the following is noted: 50 °C, cited from earlier work.

A word on the IC50: it is the concentration at which inhibition is half-maximal. As a reminder, the solubility is the dissolved amount per volume that the medium holds. Read a high solubility as a readily soluble substance. As for `O=c1c(O[C@@H]2O[C@H](CO)[C@@H](O)[C@H](O)[C@H]2O)c(-c2ccc(O)c(O)c2)oc2cc(O)cc(O)c12` [Compound 1, quercetin-3-O-β-D-glucopyranoside, reference compound], in data set [1], the “FCR (GAE)” value is 1.84 GAE and 1.84 ± 0.04 ^a GAE. The IC50 turned out to be 1.4 ± 0.06 µM in data set [2] and 972 ± 11 µM in data set [4]. Moreover, the “ABTS (TE)” value in data set [3] was 1.97 TE and 1.97 ± 0.06 ^i TE. The same compound displayed a solubility in “Solubility in water” of 360 µg/mL (≈ 775 µM). In addition, in data set [5], the solubility in water was 95 mg/L (≈ 205 µM). In addition, the solubility in acetone in data set [6] (acetone) is listed as 14 g/L (≈ 30100 µM). Further, the solubility in acetonitrile in data set [6] (acetonitrile) is recorded as 1.8 g/L (≈ 3880 µM). The “solubility in tert-amyl alcohol” value in data set [6] (tert-amyl alcohol) was 30 g/L (≈ 64600 µM).
